Earlier results on two molecules are cited in patent publication US20120136048A1, “TOPICAL, PERIOCULAR, OR INTRAOCULAR USE OF TOCOTRIENOLS FOR THE TREATMENT OF OPHTHALMIC DISEASES” (priority 2009, published 2012).

For this data set the following is noted: rat ocular tissues, every tissue to which it was administered.

Take `Cc1c(C)c2c(c(C)c1O)CC[C@@](C)(CCC[C@H](C)CCC[C@H](C)CCCC(C)C)O2` [alpha-tocopherol]: the “concentration in ocular tissues after topical ophthalmic administration” value is “no significant increase”.

On to `CC(C)=CCC/C(C)=C/CC/C(C)=C/CC[C@]1(C)CCc2c(C)c(O)c(C)c(C)c2O1` [alpha-tocotrienol, Alpha-Tocotrienol], for which the “concentration in ocular tissues after topical ophthalmic administration” value is “increased markedly”.
